The record followed here is patent US9156845B2, “4-(substituted amino)-7H-pyrrolo[2,3-d] pyrimidines as LRRK2 inhibitors” (Pfizer Inc., priority 2012, dated 2015).

Structures can show the parent of a compound that is named as a salt.

Experiment [1] concerns the target mutant G2019S LRRK2 (Homo sapiens (Human), UniProt Q5S007, G2019S). Description: LRRK2 Lantha Screen kinase assay, mutant enzyme. Format: biochemical. As to conditions: geometric mean of 2-5 determinations unless otherwise indicated (a: >=6 determinations; b: single determination).
Experimental: LRRK2 kinase activity was measured using Lantha Screen technology from Invitrogen. GST-tagged truncated LRRK2 from Invitrogen (Cat # PV4874) was incubated with a fluorescein-labeled peptide substrate based upon ezrin/radixin/moesin (ERM), also known as LRRKtide (Invitrogen cat #PR8976A), in the presence of a dose response of compound. Upon completion, the assay was stopped and detected with a terbium labeled anti-phospho-ERM antibody (Invitrogen, cat #PR8975A). […] Aliquots (3.5 μL) of the 100% DMSO dose response were mixed with 46.5 μL water then 1 μL of this mixture was added to the 3 μL substrate mix in the 384-well plate. The kinase reaction was started with 3 μL of a working solution of LRRK2 enzyme at a concentration of 4 μg/mL. […] The reaction was allowed to progress at room temperature for two hours and then stopped with the addition of 7 μL of detection buffer (20 mM Tris pH 7.6, 0.01% NP-40, 0.02% NaN3, 6 mM EDTA with 2 nM terbium labeled anti-phospho-ERM).
All final concentrations of substrate ATP and enzyme were the same.
The target of experiment [2] is GST-tagged truncated LRRK2 (Homo sapiens (Human), UniProt Q5S007). The experiment in a line: LRRK2 Lantha Screen kinase assay. Format: biochemical. As to conditions: geometric mean of 2-5 determinations unless otherwise indicated (a: >=6 determinations; b: single determination); read-out: LRRK2 WT IC50.
Sequence of GST-tagged truncated LRRK2 (Q5S007 970-2527): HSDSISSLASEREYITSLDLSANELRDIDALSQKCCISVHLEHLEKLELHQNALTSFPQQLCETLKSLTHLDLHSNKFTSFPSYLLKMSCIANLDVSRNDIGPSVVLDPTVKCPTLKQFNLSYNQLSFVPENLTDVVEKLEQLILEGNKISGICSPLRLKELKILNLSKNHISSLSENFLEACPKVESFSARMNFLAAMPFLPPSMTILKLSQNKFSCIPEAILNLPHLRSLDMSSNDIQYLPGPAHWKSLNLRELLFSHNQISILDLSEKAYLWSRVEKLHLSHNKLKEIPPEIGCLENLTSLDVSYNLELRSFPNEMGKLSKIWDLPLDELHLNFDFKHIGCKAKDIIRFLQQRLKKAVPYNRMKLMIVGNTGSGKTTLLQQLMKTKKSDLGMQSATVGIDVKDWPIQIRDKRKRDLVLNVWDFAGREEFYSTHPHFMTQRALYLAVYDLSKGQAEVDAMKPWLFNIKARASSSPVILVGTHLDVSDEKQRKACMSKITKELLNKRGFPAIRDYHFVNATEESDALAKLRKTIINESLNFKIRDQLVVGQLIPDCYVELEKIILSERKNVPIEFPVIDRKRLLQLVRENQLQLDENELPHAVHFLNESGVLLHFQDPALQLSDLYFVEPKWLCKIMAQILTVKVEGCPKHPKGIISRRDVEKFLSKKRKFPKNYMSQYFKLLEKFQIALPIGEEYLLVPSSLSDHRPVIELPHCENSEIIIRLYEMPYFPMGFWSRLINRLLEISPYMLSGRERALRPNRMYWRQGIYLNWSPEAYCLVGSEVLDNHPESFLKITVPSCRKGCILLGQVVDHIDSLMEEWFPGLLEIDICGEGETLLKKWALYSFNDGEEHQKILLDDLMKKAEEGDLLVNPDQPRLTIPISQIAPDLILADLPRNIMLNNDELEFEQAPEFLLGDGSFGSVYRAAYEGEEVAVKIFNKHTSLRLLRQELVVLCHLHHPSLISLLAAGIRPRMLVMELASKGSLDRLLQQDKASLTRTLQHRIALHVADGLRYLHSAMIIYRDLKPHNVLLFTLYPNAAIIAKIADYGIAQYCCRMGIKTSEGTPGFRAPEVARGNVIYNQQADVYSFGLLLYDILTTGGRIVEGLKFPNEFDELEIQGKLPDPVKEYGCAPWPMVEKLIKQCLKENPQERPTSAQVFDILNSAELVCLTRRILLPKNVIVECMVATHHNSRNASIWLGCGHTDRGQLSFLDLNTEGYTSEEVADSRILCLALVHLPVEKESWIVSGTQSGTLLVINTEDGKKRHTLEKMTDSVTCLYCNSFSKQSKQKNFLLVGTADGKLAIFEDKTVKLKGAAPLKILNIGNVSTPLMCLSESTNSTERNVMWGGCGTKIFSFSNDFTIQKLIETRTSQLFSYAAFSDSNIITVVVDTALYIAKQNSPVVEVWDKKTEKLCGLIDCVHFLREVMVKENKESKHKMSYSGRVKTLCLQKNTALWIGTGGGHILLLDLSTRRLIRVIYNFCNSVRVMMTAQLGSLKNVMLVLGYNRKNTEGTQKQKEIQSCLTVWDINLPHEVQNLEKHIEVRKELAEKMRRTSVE

By IC50 is commonly meant the midpoint of a concentration-inhibition curve.

Sequence of mutant G2019S LRRK2 (Q5S007 970-2527 G2019S): as the sequence (Q5S007 970-2527) above, with G1050S counted along it

In the case of `N#Cc1cccc(-c2c[nH]c3ncnc(N4CCO[C@H]5CCC[C@H]54)c23)c1` (relative stereo) [Example 208, rel-3-{4-[(4aR,7aS)-hexahydrocyclopenta[b][1,4]oxazin-4(4aH)-yl]-7H-pyrrolo[2,3-d]pyrimidin-5-yl}benzonitrile], the IC50 came out at 186 nM in experiment [1] and 27.2 nM in experiment [2].

As for `CC1CCCN(c2ncnc3[nH]cc(-c4cccc(C#N)c4)c23)C1` (single isomer, unassigned) [Example 41], the IC50 came out at 172 nM in experiment [1] and 70 nM in experiment [2].

As to `CC1CCN(c2ncnc3[nH]cc(-c4cccc(C#N)c4)c23)C1` (single isomer, unassigned) [Example 71], the IC50 in experiment [1] was 102 nM; in experiment [2] it was 21 nM.

As to `COCC1CN(c2ncnc3[nH]cc(-c4cccc(C#N)c4)c23)CCO1` (single isomer, unassigned) [Example 74], the IC50 is 100 nM in experiment [1] and 12 nM in experiment [2].

Consider `N#Cc1cccc(-c2c[nH]c3ncnc(N4CCOC(c5cc[nH]n5)C4)c23)c1` (single isomer, unassigned) [Example 76, 3-{4-[2-(1H-pyrazol-3-yl)morpholin-4-yl]-7H-pyrrolo[2,3-d]pyrimidin-5-yl}benzonitrile], for which the IC50 in experiment [1] was 208 nM; in experiment [2], 23 nM.

In the case of `CC1CCN(c2ncnc3[nH]cc(-c4cccc(C#N)c4)c23)C1` (single isomer, unassigned) [Example 77], the IC50 in experiment [1] was 158 nM; in experiment [2] it was 39 nM.

As to `COCC1CN(c2ncnc3[nH]cc(-c4cccc(C#N)c4)c23)CCO1` (single isomer, unassigned) [Example 197], the IC50 in experiment [1] came out at 245 nM; in experiment [2] it was 214 nM.

For `Cc1noc(C2CN(c3ncnc4[nH]cc(-c5cccc(C#N)c5F)c34)CCO2)n1` (single isomer, unassigned) [Example 213], the IC50 was 95.7 nM in experiment [1] and 7.71 nM in experiment [2].

Turning to `Cc1[nH]c2ncnc(N3CCOCC3)c2c1-c1cccc(C#N)c1` [Example 2, 3-[6-Methyl-4-(morpholin-4-yl)-7H-pyrrolo[2,3-d]pyrimidin-5-yl]benzonitrile], the IC50 amounted to 43 nM in experiment [1] and 12 nM in experiment [2].

Regarding `N#Cc1cccc(-c2c[nH]c3ncnc(N4CCOCC4)c23)n1` [Example 3, 6-[4-(Morpholin-4-yl)-7H-pyrrolo[2,3-d]pyrimidin-5-yl]pyridine-2-carbonitrile], the results for the IC50 in experiment [1] and in experiment [2] were 26 nM and 9 nM, respectively.

`CN(C)c1ncnc2[nH]cc(-c3cccc(C#N)c3)c12` [Example 5, 3-[4-(Dimethylamino)-7H-pyrrolo[2,3-d]pyrimidin-5-yl]benzonitrile]: the IC50 in experiment [1] stood at 15 nM; in experiment [2], 5 nM.

Regarding `C[C@H]1CN(c2ncnc3[nH]cc(-c4cccc(C#N)c4)c23)CCO1` [Example 6, 3-{4-[(2S)-2-Methylmorpholin-4-yl]-7H-pyrrolo[2,3-d]pyrimidin-5-yl}benzonitrile], the IC50 in experiment [1] worked out at 37 nM; in experiment [2] it was 7 nM.

With `C[C@H]1CCCN(c2ncnc3[nH]cc(-c4cccc(CO)c4)c23)C1` [Example 7, (3-{4-[(3S)-3-Methylpiperidin-1-yl]-7H-pyrrolo[2,3-d]pyrimidin-5-yl}phenyl)methanol], the IC50 in experiment [1] and in experiment [2] was 18 nM throughout.

For the compound `c1nc(N2CCOCC2)c2c(-c3cn[nH]c3)c[nH]c2n1` [Example 8, 4-(Morpholin-4-yl)-5-(1H-pyrazol-4-yl)-7H-pyrrolo[2,3-d]pyrimidine, formate salt], the IC50 in experiment [1] was determined as 33 nM; in experiment [2], 25 nM.

`Cc1nc(N2CCOCC2)c2c(-c3cccc(C#N)c3)c[nH]c2n1` [Example 9, 3-[2-Methyl-4-(morpholin-4-yl)-7H-pyrrolo[2,3-d]pyrimidin-5-yl]benzonitrile]: the results for the IC50 in experiment [1] and in experiment [2] were 513 nM and 42 nM, respectively.

Take `CN(C)c1ncnc2[nH]cc(-c3cccc(CO)c3)c12` [Example 10, {3-[4-(Dimethylamino)-7H-pyrrolo[2,3-d]pyrimidin-5-yl]phenyl}methanol]: the figures for the IC50 in experiment [1] and in experiment [2] were 23 nM and 34 nM, respectively.

For the compound `CC1(C)CCCN(c2ncnc3[nH]cc(-c4cccc(C#N)c4)c23)C1` [Example 11, 3-[4-(3,3-dimethylpiperidin-1-yl)-7H-pyrrolo[2,3-d]pyrimidin-5-yl]benzonitrile], the results for the IC50 in experiment [1] and in experiment [2] were 325 nM and 90 nM, respectively.

`N#Cc1cccc(-c2c[nH]c3ncnc(N4CCCCC4)c23)c1` [Example 12, 3-[4-(piperidin-1-yl)-7H-pyrrolo[2,3-d]pyrimidin-5-yl]benzonitrile]: the IC50 in experiment [1] is 28 nM; in experiment [2], 6 nM.

Regarding `NC(=O)C1CCCN(c2ncnc3[nH]cc(-c4ccccc4)c23)C1` (stereo not drawn) [Example 13, 1-(5-phenyl-7H-pyrrolo[2,3-d]pyrimidin-4-yl)piperidine-3-carboxamide], the figures for the half-inhibitory concentration (IC50) in experiment [1] and in experiment [2] were 39 nM and 41 nM, respectively.

For the compound `N#Cc1cccc(-c2c[nH]c3ncnc(N4CCC[C@H](O)C4)c23)c1` [Example 14, 3-{4-[(3S)-3-hydroxypiperidin-1-yl]-7H-pyrrolo[2,3-d]pyrimidin-5-yl}benzonitrile], the IC50 was found to be 95 nM in experiment [1] and 17 nM in experiment [2].

Regarding `C[C@H]1CCCN(c2ncnc3[nH]cc(-c4ccccc4)c23)C1` [Example 15, 4-[(3S)-3-methylpiperidin-1-yl]-5-phenyl-7H-pyrrolo[2,3-d]pyrimidine], the IC50 in experiment [1] came to 92 nM; in experiment [2], 91 nM.

On to `C[C@H]1CCCN(c2ncnc3[nH]cc(-c4cccc(C#N)c4)c23)C1` [Example 16, 3-{4-[(3S)-3-methylpiperidin-1-yl]-7H-pyrrolo[2,3-d]pyrimidin-5-yl}benzonitrile], for which the values for the IC50 in experiment [1] and in experiment [2] were 45 nM and 16 nM, respectively.

With `C[C@H]1CCCN(c2ncnc3[nH]cc(-c4cnn(C)c4)c23)C1` [Example 17, 4-[(3S)-3-methylpiperidin-1-yl]-5-(1-methyl-1H-pyrazol-4-yl)-7H-pyrrolo[2,3-d]pyrimidine], the IC50 in experiment [1] came out at 12 nM; in experiment [2], 14 nM.

As to `c1ccc(-c2c[nH]c3ncnc(N4CCCC4)c23)cc1` [Example 18, 5-phenyl-4-(pyrrolidin-1-yl)-7H-pyrrolo[2,3-d]pyrimidine], the IC50 in experiment [1] was 47 nM; in experiment [2], 71 nM.

For `OCC1CCN(c2ncnc3[nH]cc(-c4ccccc4)c23)CC1` [Example 19, [1-(5-phenyl-7H-pyrrolo[2,3-d]pyrimidin-4-yl)piperidin-4-yl]methanol], the IC50 in experiment [1] turned out to be 29 nM; in experiment [2], 38 nM.

Regarding `N#CC1CCCN(c2ncnc3[nH]cc(-c4cccc(CO)c4)c23)C1` (stereo not drawn) [Example 20, 1-{5-[3-(hydroxymethyl)phenyl]-7H-pyrrolo[2,3-d]pyrimidin-4-yl}piperidine-3-carbonitrile], the IC50 in experiment [1] is 31 nM; in experiment [2], 56 nM.

Turning to `N#Cc1cccc(-c2c[nH]c3ncnc(N4CCCC(C#N)C4)c23)c1` (stereo not drawn) [Example 21, 1-[5-(3-cyanophenyl)-7H-pyrrolo[2,3-d]pyrimidin-4-yl]piperidine-3-carbonitrile], the results for the IC50 in experiment [1] and in experiment [2] were 183 nM and 57 nM, respectively.

For `C[C@@H]1C[C@H](C)CN(c2ncnc3[nH]cc(-c4cnn(C)c4)c23)C1` [Example 22, 4-(3,5-cis-dimethylpiperidin-1-yl)-5-(1-methyl-1H-pyrazol-4-yl)-7H-pyrrolo[2,3-d]pyrimidine], the IC50 in experiment [1] and in experiment [2] was 16 nM each time.

As for `COc1ccc(C#N)cc1-c1c[nH]c2ncnc(N3CCCC(C)C3)c12` (stereo not drawn) [Example 23, 4-methoxy-3-[4-(3-methylpiperidin-1-yl)-7H-pyrrolo[2,3-d]pyrimidin-5-yl]benzonitrile], the IC50 in experiment [1] amounted to 46 nM; in experiment [2] it was 25 nM.

Regarding `COc1ccc(C#N)cc1-c1c[nH]c2ncnc(N(C)C)c12` [Example 24, 3-[4-(dimethylamino)-7H-pyrrolo[2,3-d]pyrimidin-5-yl]-4-methoxybenzonitrile], the values for the IC50 in experiment [1] and in experiment [2] were 30 nM and 24 nM, respectively.

As for `COc1ccc(Cl)cc1-c1c[nH]c2ncnc(N(C)C)c12` [Example 25, 5-(5-chloro-2-methoxyphenyl)-N,N-dimethyl-7H-pyrrolo[2,3-d]pyrimidin-4-amine], the figures for the IC50 in experiment [1] and in experiment [2] were 19 nM and 22 nM, respectively.

As to `N#Cc1cccc(-c2c[nH]c3ncnc(N4CCC(c5ncc[nH]5)CC4)c23)c1` [Example 26, 3-{4-[4-(1H-imidazol-2-yl)piperidin-1-yl]-7H-pyrrolo[2,3-d]pyrimidin-5-yl}benzonitrile], the results for the IC50 in experiment [1] and in experiment [2] were 230 nM and 42 nM, respectively.

Regarding `COCC1CCCN(c2ncnc3[nH]cc(-c4cccc(C#N)c4)c23)C1` (stereo not drawn) [Example 27, 3-{4-[3-(methoxymethyl)piperidin-1-yl]-7H-pyrrolo[2,3-d]pyrimidin-5-yl}benzonitrile], the results for the IC50 in experiment [1] and in experiment [2] were 219 nM and 95 nM, respectively.

Regarding `CN1CCC2(CC1)CN(c1ncnc3[nH]cc(-c4cccc(C#N)c4)c13)CCO2` [Example 28, 3-[4-(9-methyl-1-oxa-4,9-diazaspiro[5.5]undec-4-yl)-7H-pyrrolo[2,3-d]pyrimidin-5-yl]benzonitrile], the IC50 is 201 nM in experiment [1] and 40 nM in experiment [2].

On to `COC1CCCN(c2ncnc3[nH]cc(-c4cccc(C#N)c4)c23)C1` (stereo not drawn) [Example 29, 3-[4-(3-methoxypiperidin-1-yl)-7H-pyrrolo[2,3-d]pyrimidin-5-yl]benzonitrile], for which the 50% inhibitory concentration (IC50) in experiment [1] came out at 154 nM; in experiment [2] it was 79 nM.

Turning to `COCC1CN(c2ncnc3[nH]cc(-c4cccc(C#N)c4)c23)CCO1` (stereo not drawn) [Example 30, 3-{4-[2-(methoxymethyl)morpholin-4-yl]-7H-pyrrolo[2,3-d]pyrimidin-5-yl}benzonitrile], the IC50 in experiment [1] is 121 nM; in experiment [2], 17 nM.
